Experimental data published in patent US8975280B2, “Deoxynojirimycin and D-arabinitol analogs and methods of using” (The Chancellor, Masters and Scholars of The University of …, priority 2006, dated 2015).

Molecular target: T1, α-glucosidase I (Rattus norvegicus, UniProt O88941)
T1 construct: Purified α-glucosidase I and II were purified from rat liver by known methods; from tissue; host or cells: rat liver
T1 sequence (O88941 1-834): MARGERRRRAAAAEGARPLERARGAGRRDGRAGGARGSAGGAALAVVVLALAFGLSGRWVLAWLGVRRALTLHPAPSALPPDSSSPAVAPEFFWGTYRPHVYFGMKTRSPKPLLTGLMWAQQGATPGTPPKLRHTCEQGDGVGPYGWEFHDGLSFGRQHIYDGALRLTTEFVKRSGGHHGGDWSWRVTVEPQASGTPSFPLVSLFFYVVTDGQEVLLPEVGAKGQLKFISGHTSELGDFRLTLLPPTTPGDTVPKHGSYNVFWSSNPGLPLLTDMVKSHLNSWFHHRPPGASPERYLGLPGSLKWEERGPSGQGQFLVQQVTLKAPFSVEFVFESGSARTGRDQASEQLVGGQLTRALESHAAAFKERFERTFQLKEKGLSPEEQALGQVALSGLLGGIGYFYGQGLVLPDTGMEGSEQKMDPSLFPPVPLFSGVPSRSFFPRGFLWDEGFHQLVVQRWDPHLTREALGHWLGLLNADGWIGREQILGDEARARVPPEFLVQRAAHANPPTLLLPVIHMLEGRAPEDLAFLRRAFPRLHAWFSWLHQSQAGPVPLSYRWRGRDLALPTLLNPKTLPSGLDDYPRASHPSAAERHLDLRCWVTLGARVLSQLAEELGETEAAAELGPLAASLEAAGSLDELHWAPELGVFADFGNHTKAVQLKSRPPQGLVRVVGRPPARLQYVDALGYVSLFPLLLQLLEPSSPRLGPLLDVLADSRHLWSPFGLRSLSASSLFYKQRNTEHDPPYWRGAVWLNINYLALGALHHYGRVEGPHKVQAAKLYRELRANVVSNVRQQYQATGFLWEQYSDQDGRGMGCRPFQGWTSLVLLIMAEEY
Experiment: In vitro inhibition of purified α-glucosidase I, 2-AA-labeled FOS substrates, HPLC
Assay type: biochemical
Method: All chromatography was performed at 30° C. The first solvent, solvent A, was acetonitrile and the second solvent, solvent B, was Milli-Q water. […] Samples (<50 μl) were injected in Milli-Q water/acetonitrile (3/7, v/v). All chromatography was controlled, including data collection and processing, using Waters Empower software. Glucose units were determined, following comparison with a 2-AA-labeled glucose oligomer ladder (derived from a partial hydrolysate of dextran) external standard using Peak Time software (developed in-house).
Purified α-glucosidase I and II were purified from rat liver by known methods. […] 2-AA-labeled FOS were isolated and purified as substrates for either α-glucosidase I or II. Fluorescently-labeled substrates Glc1Man5GlcNAc1 (G1M5N), Glc2Man5GlcNAc1 (G2M5N), Glc3Man5GlcNAc1 (G3M5N) and Glc3Man9GlcNAc, (G3M9N2) were added to separate 1.5 ml centrifuge tubes with varying concentrations of imino sugar and dried under vacuum. […] Similarly, α-glucosidase II was incubated for 2 hours with G2M5N and 20 minutes with G1M5N. […] The reactions were stopped by the addition of 30 μl acetonitrile.

[1] = physiologically relevant substrates

[N-]=[N+]=Nc1ccc(NCCCCCCN2C[C@H](O)[C@@H](O)[C@H](O)[C@H]2CO)c([N+](=O)[O-])c1 [NAP-DNJ, N—(N′-{4′azido-2′-nitrophenyl)-6-aminohexyl)-deoxynojirimycin]
more potent in inhibiting glucosidase I than glucosidase II (a) (heptamannose substrates): over 300 times | more potent in inhibiting glucosidase I than glucosidase II (b) (heptamannose substrates): more than 500 times | inhibition of α-glucosidase I improved in comparison to NB-DNJ (pentamannose substrate): 40 fold | inhibition better for α-glucosidase I than α-glucosidase II (a) (pentamannose substrates): 20 times | inhibition better for α-glucosidase I than α-glucosidase II (b) (pentamannose substrates): 50 times | better at inhibiting glucosidase I than glucosidase II (a) and (b) activity [1]: 300-500 times | better than NB-DNJ in inhibiting all triglucosylated structures [1]: 25-50 times | IC50 (α-Glucosidase I Glc3Man5GlcNAc1 IC50, pentamannose substrate Glc3Man5GlcNAc1): 17 ± 1 nM | IC50 (α-Glucosidase I Glc3Man7GlcNAc1 IC50, heptamannose substrate Glc3Man7GlcNAc1): 37 ± 1 nM | IC50 (α-Glucosidase I Glc3Man9GlcNAc1 IC50, nonamannose substrate Glc3Man9GlcNAc1): 22 ± 2 nM
